PMC11231141, “Ube3a unsilencer for the potential treatment of Angelman syndrome” (Nature Communications, 2024)

How the values were obtained:
[1] = test system: paternal UBE3A-YFP; experiment: paternal UBE3A-YFP unsilencing, high-content imaging in mouse primary neurons (Ube3a m+/pYFP); format: cell-based; details: for Emax / EC50: Mus musculus, 72 h, mean ± SEM; for Emax: Neuron, highest concentration with at least 90% neurons alive, read-out: EMAX (% patUBE3A-YFP+); for EC50: Primary neuron, n = 3; for capability to unsilence paternal Ube3a (analog test): mouse primary neurons, up to 5 μM
Experimental: We aimed to identify novel unsilencers of paternal Ube3a by employing a previously developed high-content small molecule screen. This screen was performed in primary neurons derived from knock-in mice harboring a yellow fluorescent protein (YFP) fused to the paternal allele of Ube3a[25], allowing for fluorescence-based identification of the paternal allele-specific expression of UBE3A-YFP (detected by a GFP antibody enhancement) (Fig. 1a and Supplementary Table 1). We screened >2800 compounds from a Pfizer chemogenetic library, which contains small molecules selected to cover a broad spectrum of pharmacological space. We screened small molecules at 1 μM concentration and used 0.3 μM topotecan, a topoisomerase inhibitor that can downregulate the Ube3a-ATS and unsilence the paternal Ube3a, as a positive control (Fig. 1b)[10]. Small molecules that increase the UBE3A-YFP signal represent putative paternal Ube3a unsilencers.
(§1) Immunofluorescence for high-content imaging analysis was performed as previously described with slight modifications. Following drug treatment at DIV7, primary neurons were fixed at DIV10 with 4% paraformaldehyde in PBS at room temperature (RT) for 10 min. After three brief washes in PBS, neurons were permeabilized with PBS/1% Triton-X-100 at RT for 10 min, followed by blocking with PBS including 5% normal goat serum and 0.2% Triton-X-100 (NGST) at RT. […] All acquired images were analyzed by CellProfiler[48]. The mean GFP signal from each drug-treated well was normalized to the average mean GFP signal from DMSO-treated neurons. […] Fluorescent images were acquired using a Nikon Ti2 eclipse fluorescence microscope (Nikon Instruments Inc.) and analyzed using Nikon NIS-Elements software (Nikon Instruments Inc.). Antibody-enhanced UBE3A-YFP fluorescence intensities were determined from DAPI and NeuN double-positive neurons in drug-treated wells and normalized to neurons in DMSO-treated wells. The cytotoxicity of a compound was determined by calculating the percentage of neurons (DAPI and NeuN double-positive cells) alive in drug-treated wells compared to the DMSO-treated wells. For determining the effectiveness of unsilencing, the percent neurons expressing GFP signal in neurons (DAPI and NeuN double-positive cells) in drug-treated wells was thresholded such that the percent GFP positive neurons in DMSO-treated wells was set to ~5%. Concentrations where more than 10% of neurons were dead compared to DMSO-treated wells were manually removed and the last included data point was set as a maximum efficacy. Sigmoidal curve fitting for the dose-response analysis was performed using GraphPad Prism software version 8.0 (GraphPad Software).

[2] = cytotoxicity (% viable DAPI/NeuN neurons vs DMSO) in mouse primary neurons; format: cell-based; details: primary cortical neurons from E15.5 mouse embryos, mean ± SEM, n = 3
Experimental: as §1

[3] = test system: Ube3a-ATS; experiment: quantitative RT-PCR of Ube3a-ATS in Ube3a m-/p+ primary neurons; format: cell-based, mouse; details: 72 h at DIV7, 0.3 µM topotecan, 1 µM (S)- or (R)-PHA533533, 0.1 µM 2, 0.1 µM 3, 0.3 µM (±)-4, 5 µM (S,R)-5
Experimental: Next, 1 ml of Neurobasal Plus medium (A3582901, ThermoFisher) containing 5% FBS (TMS-013-B; MilliporeSigma) was added to the cortical mixture to deactivate the papain and subsequently triturated. […] Isolated cortical neurons were plated onto poly-D-lysine coated 384-well plates at 2 × 10^4 cell/well for screening and dose-response assays, or 6-well plates at 1 × 10^6 cell/well for molecular and biochemical assays (western blot, ASO-dependent knock-down, and quantitative RT-PCR).

[4] = test system: UBE3A protein; experiment: western blot of UBE3A protein in Ube3a m-/p+ primary neurons; format: cell-based, mouse; details: 72 h at DIV7, 0.3 µM topotecan, 1 µM (S)-PHA533533, 0.1 µM 3, 0.3 µM (±)-4
Experimental: 2’ MOE gapmer antisense oligonucleotides (ASOs) designed to target mouse Cdk2 sequence […], Cdk5 sequence […], Top1 sequence […], and scrambled […] sequence as a negative control (Integrated DNA Technologies) were formulated in water and added to cultured cortical neurons grown on 6-well plates at DIV5 at a final concentration of 10 μM. Neurons were further cultured and treated at DIV7 with vehicle (0.1% DMSO) or the indicated compounds for 72 h. For western blot analysis, neurons were washed once with PBS and then lysed using RIPA buffer (50 mM Tris-HCl pH 8.0, 150 mM NaCl, 1% NP−40, 0.5% Na-deoxycholate, 0.5% SDS) and protease inhibitor cocktail (P8340, MilliporeSigma) on ice.

[5] = molecular target: T1, TOP1 (Homo sapiens, UniProt P11387); experiment: TOP1-mediated DNA relaxation assay; format: biochemical; details: 3 μM topotecan; increasing concentrations of (S)- and (R)-PHA533533; vs DMSO
T1 construct: purchased TopoGEN
T1 sequence (P11387 1-765): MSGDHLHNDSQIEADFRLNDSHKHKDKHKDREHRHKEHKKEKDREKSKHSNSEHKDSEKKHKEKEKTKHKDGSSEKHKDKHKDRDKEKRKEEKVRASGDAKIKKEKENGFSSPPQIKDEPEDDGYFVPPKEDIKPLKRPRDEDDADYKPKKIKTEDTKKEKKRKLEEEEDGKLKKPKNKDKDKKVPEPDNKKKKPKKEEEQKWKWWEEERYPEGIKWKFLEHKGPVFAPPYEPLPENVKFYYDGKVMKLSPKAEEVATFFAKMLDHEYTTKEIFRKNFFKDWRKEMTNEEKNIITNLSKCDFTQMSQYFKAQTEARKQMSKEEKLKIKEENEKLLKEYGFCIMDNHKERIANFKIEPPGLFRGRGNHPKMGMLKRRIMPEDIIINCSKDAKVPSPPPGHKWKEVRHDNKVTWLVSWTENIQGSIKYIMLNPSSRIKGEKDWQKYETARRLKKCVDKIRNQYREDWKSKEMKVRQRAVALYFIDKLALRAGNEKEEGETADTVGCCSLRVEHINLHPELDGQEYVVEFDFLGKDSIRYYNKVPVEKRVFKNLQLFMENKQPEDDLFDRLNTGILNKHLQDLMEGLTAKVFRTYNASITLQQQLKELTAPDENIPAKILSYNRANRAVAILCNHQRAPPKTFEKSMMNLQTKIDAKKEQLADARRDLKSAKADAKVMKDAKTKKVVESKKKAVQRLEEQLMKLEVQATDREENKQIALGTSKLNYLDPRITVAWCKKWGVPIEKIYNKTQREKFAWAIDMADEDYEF
Excerpt: […]. […] […]. […] […]. […] […].
The Pfizer chemogenetic library and PHA533533 derivatives were provided by the Compound Transfer Program (CTP) at Pfizer. Topotecan hydrochloride salt was purchased from Cayman Chemicals (Item No. 14129). […] […]. The Human Topoisomerase I Assay Kit was purchased from TopoGEN and performed according to the manufacturer’s protocols.

Row | SMILES | Emax [1] [%] | EC50 [1] [nM] | capability to unsilence paternal Ube3a (analog test) [1] | CC50 at 72 h [2] [nM] | relative quantity of Ube3a-ATS vs DMSO [3] | UBE3A protein levels vs DMSO [4] | paternal UBE3A-YFP immunofluorescent signal [1] | inhibition of TOP1 catalytic activity to relax supercoiled DNA [5] | relative quantity of Ube3a-ATS vs DMSO ([3]; listed as compound 2)
1 | CC(C(=O)Nc1cc(C2CC2)[nH]n1)c1ccc(N2CCC(O)C2=O)cc1 [Compound (S,R)-5] | 58.3 ± 9.24 | 5300 ± 370 | could unsilence paternal Ube3a | 12800 ± 780 | downregulated | – | – | – | –
2 | O=C(Cc1ccc(-c2ccccc2)cc1)Nc1cc(C2CC2)[nH]n1 [Compound 3] | 43.5 ± 8.24 | 100 ± 10 | could unsilence paternal Ube3a | 300 ± 30 | downregulated | significantly increased | – | – | –
3 | C[C@@H](C(=O)Nc1cc(C2CC2)[nH]n1)c1ccc(N2CCCC2=O)cc1 [(R)-PHA533533] | – | – | – | – | – | – | minimal UBE3A-YFP immunofluorescent signal | had no effect on the TOP1 activity | –
4 | O=C(Cc1ccc2ccccc2c1)Nc1cc(C2CC2)[nH]n1 [Compound 2] | 71.4 ± 7.34 | 140 ± 20 | could unsilence paternal Ube3a | 570 ± 90 | downregulated | – | – | – | did not reach statistical significance
5 | CC(C(=O)Nc1cc(C2CC2)[nH]n1)c1ccc(N2CCCC2)cc1 (racemic) [Compound (±)-4] | 65.7 ± 15.4 | 260 ± 100 | could unsilence paternal Ube3a | 1460 ± 240 | downregulated | significantly increased | – | – | –
